Here are results for four molecules from ChEMBL document CHEMBL3407455, “Discovery of highly potent, selective, and efficacious small molecule inhibitors of ERK1/2” (J Med Chem, 2015).

Series [1] is described as follows: in vivo. The note with it: CD-1, mouse, iv, 1 mg/kg.
Series [2] is described as follows: in vivo. The note with it: CD-1, mouse, po, 5 mg/kg.
Series [3] in a line: in vivo. Conditions: CD-1, mouse, plasma, po, 5 mg/kg.
The nature of series [4]: in vitro. The note with it: dog, MDCK.
Series [5] is described as follows: in vivo. The note with it: nude, mouse, plasma, po, 5 mg/kg.
Series [6] is described as follows: in vivo. The note with it: nude, mouse, plasma, po, 30 mg/kg.
Series [7] in a line: in vivo. The note with it: nude, mouse, iv, 1 mg/kg.
Series [8] is described as follows: in vivo. Conditions: nude, mouse, po, 5 mg/kg.
A short description of series [9]: in vivo. The note with it: cynomolgus monkey, po, 5 mg/kg.
Series [10] can be described thus: in vivo. Conditions: dog, po, 5 mg/kg.
A short description of series [11]: in vivo. The note with it: cynomolgus monkey, plasma, po, 5 mg/kg.
Series [12] in a line: in vivo. The note with it: nude, mouse, po, 150 mg/kg.
Series [13] in a line: in vivo. The note with it: rat, po, 5 mg/kg.
Series [14] can be described thus: in vivo. Conditions: nude, mouse, po, 30 mg/kg.
Series [15] is described as follows: in vivo. Conditions: nude, mouse, po, 100 mg/kg.
Series [16] is described as follows: in vivo. The note with it: rat, iv, 1 mg/kg.
The nature of series [17]: in vivo. The note with it: nude, mouse, po, 100 mg/kg. This is another data set of the same source.
Series [18] can be described thus: in vivo. Conditions: rat, po, 5 mg/kg. The source holds these as a separate data set.
The nature of series [19]: in vivo. The note with it: cynomolgus monkey, po, 5 mg/kg. The source holds these as a separate data set.
Series [20] in a line: in vivo. The note with it: dog, po, 5 mg/kg. This is another data set of the same source.
Series [21] is described as follows: in vivo. The note with it: dog, po, 5 mg/kg. This is another data set of the same source.
A short description of series [22]: in vivo. The note with it: cynomolgus monkey, po, 5 mg/kg. The source holds these as a separate data set.
Series [23] in a line: in vivo. Conditions: rat, plasma, po, 5 mg/kg.
A short description of series [24]: in vivo. Conditions: nude, mouse, po, 5 mg/kg. This is another data set of the same source.
Series [25] is described as follows: in vivo. The note with it: nude, mouse, po, 150 mg/kg. This is another data set of the same source.
Series [26] is described as follows: in vivo. Conditions: nude, mouse, po, 150 mg/kg. The source holds these as a separate data set.
Series [27] can be described thus: in vivo. The note with it: rat, po, 5 mg/kg. The source holds these as a separate data set.
Series [28] is described as follows: in vivo. The note with it: dog, plasma, po, 5 mg/kg.
Series [29] in a line: in vivo. Conditions: nude, mouse, po, 30 mg/kg. The source holds these as a separate data set.
Series [30] can be described thus: in vivo. Conditions: nude, mouse, plasma, po, 150 mg/kg.
Series [31] can be described thus: in vivo. Conditions: dog, iv, 2 mg/kg.
Series [32] can be described thus: in vivo. Conditions: nude, mouse, po, 100 mg/kg. The source holds these as a separate data set.
Series [33] in a line: in vivo. Conditions: nude, mouse, po, 5 mg/kg. This is another data set of the same source.
Series [34] can be described thus: in vivo. The note with it: nude, mouse, plasma, po, 100 mg/kg.
Series [35] in a line: in vivo. The note with it: cynomolgus monkey, iv, 2 mg/kg.

`O=c1cc(-c2ccnc(NC3CCOCC3)n2)ccn1[C@H](CO)c1cccc(Cl)c1` returned a clearance in series [1] of 114 mL/min/kg. Besides, in series [2], the bioavailability came out at 38%. Also, in series [3], the AUC is 0.59 µM·h. The same molecule had a Papp A→B in series [4] of 8.5 ×10⁻⁶ cm/s.

The molecule `O=c1cc(-c2ccnc(NC3CCOCC3)n2)ccn1[C@H](CO)c1cccc(F)c1` had a clearance in series [1] of 39 mL/min/kg. Also, in [2], the bioavailability is 36%. The AUC in series [3] is 1.72 µM·h. The same molecule showed a Papp A→B in series [4] of 5.5 ×10⁻⁶ cm/s.

Take `O=c1cc(-c2ccnc(NC3CCOCC3)n2)ccn1[C@H](CO)c1ccc(Cl)c(F)c1`: the clearance in series [1] was 33 mL/min/kg; in series [7], 40 mL/min/kg; in series [16] it was 39 mL/min/kg; in series [31] it was 18 mL/min/kg; in series [35] it was 12 mL/min/kg. For the same molecule, the AUC in series [5] was determined as 5.4 µM·h; in series [6], 46.8 µM·h; in series [11], 3.3 µM·h; in series [23] it was 2.15 µM·h; in series [3] it was 3.05 µM·h; in [28], 4.87 µM·h. For the same molecule, the exposure (AUC) was determined as 175 µM·h in series [30] and 129 µM·h in [34]. The Cmax in series [8] is 3.12 µM; in [9] it was 0.98 µM; in series [13], 1.49 µM; in series [17] it was 38.9 µM; in series [20], 2.91 µM; in [25] it was 67.7 µM. In series [29], this molecule had a Cmax of 20.2 µM. In addition, the bioavailability in [2] was 66%; in series [10], 46%; in series [22] it was 22%; in series [24], 139%; in [26], 127%; in [27], 44%. The bioavailability in series [32] is 139%. Moreover, the half-life in series [12] was 1.97 h; in [14] it was 2.33 h; in series [15] it was 1.71 h; in [18], 1.16 h; in series [19], 2.39 h; in series [21] it was 1.55 h. The molecule further had a half-life in series [33] of 3.52 h. The apical-to-basolateral permeability (Papp A→B) in [4] is 11.3 ×10⁻⁶ cm/s.

In [1], `O=c1cc(-c2ccnc(NC3CCOCC3)n2)ccn1[C@H](CO)c1ccc(F)c(Cl)c1` came in with a clearance of 63 mL/min/kg. Besides, the bioavailability in [2] was 76%. The molecule also registered an exposure (AUC) in series [3] of 2.18 µM·h. Besides, the apical-to-basolateral permeability (Papp A→B) in series [4] worked out at 4.6 ×10⁻⁶ cm/s.
